Assay: xn = mol fraction of the nth substance listed
Conditions: Liquid, Vibrating tube method

CCCCCCCCCC [decane] + CCCCCC
Conditions	mass density [kg/m3]
362.91 K, 7000 kPa, x2 = 0.0456	681.43
362.91 K, 8000 kPa, x2 = 0.0456	682.51
362.91 K, 9000 kPa, x2 = 0.0456	683.59
362.91 K, 10000 kPa, x2 = 0.0456	684.65
362.91 K, 11000 kPa, x2 = 0.0456	685.7
362.91 K, 12000 kPa, x2 = 0.0456	686.71
362.91 K, 13000 kPa, x2 = 0.0456	687.73
362.91 K, 14000 kPa, x2 = 0.0456	688.73
362.91 K, 15000 kPa, x2 = 0.0456	689.71
362.91 K, 16000 kPa, x2 = 0.0456	690.69
362.91 K, 17000 kPa, x2 = 0.0456	691.65
362.91 K, 18000 kPa, x2 = 0.0456	692.61
362.91 K, 19000 kPa, x2 = 0.0456	693.55
362.91 K, 20000 kPa, x2 = 0.0456	694.48
362.91 K, 21000 kPa, x2 = 0.0456	695.43
362.91 K, 22000 kPa, x2 = 0.0456	696.32
362.91 K, 23000 kPa, x2 = 0.0456	697.22
362.91 K, 24000 kPa, x2 = 0.0456	698.09
362.91 K, 25000 kPa, x2 = 0.0456	698.96
362.93 K, 1000 kPa, x2 = 0.7524	623.36
362.93 K, 2000 kPa, x2 = 0.7524	624.97
362.93 K, 3000 kPa, x2 = 0.7524	626.55
362.93 K, 4000 kPa, x2 = 0.7524	628.12
362.93 K, 5000 kPa, x2 = 0.7524	629.63
362.93 K, 6000 kPa, x2 = 0.7524	631.14
362.93 K, 7000 kPa, x2 = 0.7524	632.58
362.93 K, 8000 kPa, x2 = 0.7524	634.03
362.93 K, 9000 kPa, x2 = 0.7524	635.42
362.93 K, 10000 kPa, x2 = 0.7524	636.78
362.93 K, 11000 kPa, x2 = 0.7524	638.11
362.93 K, 12000 kPa, x2 = 0.7524	639.39
362.93 K, 13000 kPa, x2 = 0.7524	640.69
362.93 K, 14000 kPa, x2 = 0.7524	641.96
362.93 K, 15000 kPa, x2 = 0.7524	643.24
362.93 K, 16000 kPa, x2 = 0.7524	644.37
362.93 K, 17000 kPa, x2 = 0.7524	645.56
362.93 K, 18000 kPa, x2 = 0.7524	646.73
362.93 K, 19000 kPa, x2 = 0.7524	647.87
362.93 K, 20000 kPa, x2 = 0.7524	649
362.93 K, 21000 kPa, x2 = 0.7524	650.11
362.93 K, 22000 kPa, x2 = 0.7524	651.2
362.93 K, 23000 kPa, x2 = 0.7524	652.27
362.93 K, 24000 kPa, x2 = 0.7524	653.3
362.93 K, 25000 kPa, x2 = 0.7524	654.33
362.94 K, 1000 kPa, x2 = 0.4968	646.01
362.94 K, 2000 kPa, x2 = 0.4968	647.42
362.94 K, 3000 kPa, x2 = 0.4968	648.86
362.94 K, 4000 kPa, x2 = 0.4968	650.21
362.94 K, 5000 kPa, x2 = 0.4968	651.6
362.94 K, 6000 kPa, x2 = 0.4968	652.91
362.94 K, 7000 kPa, x2 = 0.4968	654.2
362.94 K, 8000 kPa, x2 = 0.4968	655.48
362.94 K, 9000 kPa, x2 = 0.4968	656.71
362.94 K, 10000 kPa, x2 = 0.4968	657.94
362.94 K, 11000 kPa, x2 = 0.4968	659.13
362.94 K, 12000 kPa, x2 = 0.4968	660.32
362.94 K, 13000 kPa, x2 = 0.4968	661.45
362.94 K, 14000 kPa, x2 = 0.4968	662.6
362.94 K, 15000 kPa, x2 = 0.4968	663.75
362.94 K, 16000 kPa, x2 = 0.4968	664.81
362.94 K, 17000 kPa, x2 = 0.4968	665.88
362.94 K, 18000 kPa, x2 = 0.4968	666.95
362.94 K, 19000 kPa, x2 = 0.4968	667.98
362.94 K, 20000 kPa, x2 = 0.4968	669.01
362.94 K, 21000 kPa, x2 = 0.4968	670.03
362.94 K, 22000 kPa, x2 = 0.4968	671.04
362.94 K, 23000 kPa, x2 = 0.4968	672.03
362.94 K, 24000 kPa, x2 = 0.4968	673
362.94 K, 25000 kPa, x2 = 0.4968	673.96
362.95 K, 1000 kPa, x2 = 0.2185	664.98
362.95 K, 2000 kPa, x2 = 0.2185	666.23
362.95 K, 3000 kPa, x2 = 0.2185	667.46
362.95 K, 4000 kPa, x2 = 0.2185	668.71
362.95 K, 5000 kPa, x2 = 0.2185	669.93
362.95 K, 6000 kPa, x2 = 0.2185	671.12
362.95 K, 7000 kPa, x2 = 0.2185	672.27
362.95 K, 8000 kPa, x2 = 0.2185	673.43
362.95 K, 9000 kPa, x2 = 0.2185	674.54
362.95 K, 10000 kPa, x2 = 0.2185	675.66
362.95 K, 11000 kPa, x2 = 0.2185	676.75
362.95 K, 12000 kPa, x2 = 0.2185	677.81
362.95 K, 13000 kPa, x2 = 0.2185	678.85
362.95 K, 14000 kPa, x2 = 0.2185	679.9
362.95 K, 15000 kPa, x2 = 0.2185	680.96
362.95 K, 16000 kPa, x2 = 0.2185	681.94
362.95 K, 17000 kPa, x2 = 0.2185	682.95
362.95 K, 18000 kPa, x2 = 0.2185	683.9
362.95 K, 19000 kPa, x2 = 0.2185	684.89
362.95 K, 20000 kPa, x2 = 0.2185	685.85
362.95 K, 21000 kPa, x2 = 0.2185	686.79
362.95 K, 22000 kPa, x2 = 0.2185	687.72
362.95 K, 23000 kPa, x2 = 0.2185	688.63
362.95 K, 24000 kPa, x2 = 0.2185	689.54
362.95 K, 25000 kPa, x2 = 0.2185	690.43
